Experimental data published in article PMC2966823 (Journal of the American Chemical Society, 2010).

Key:
[1] = molecular target: cAMP dependent protein kinase A, catalytic subunit α (PKA) (Homo sapiens, UniProt P17612); assay: split-luciferase three-hybrid displacement of Jun-staurosporine, […] inhibitor; format: cell-based; conditions: read-out: % inhibition at 10 μM
FGFR1/FLT2 = FGFR1/FLT2 (Homo sapiens, UniProt P11362); assay: as above; format: cell-based; conditions: read-out: % inhibition at 10 μM
Chain of FGFR1/FLT2 (P11362 478-767 limits assumed): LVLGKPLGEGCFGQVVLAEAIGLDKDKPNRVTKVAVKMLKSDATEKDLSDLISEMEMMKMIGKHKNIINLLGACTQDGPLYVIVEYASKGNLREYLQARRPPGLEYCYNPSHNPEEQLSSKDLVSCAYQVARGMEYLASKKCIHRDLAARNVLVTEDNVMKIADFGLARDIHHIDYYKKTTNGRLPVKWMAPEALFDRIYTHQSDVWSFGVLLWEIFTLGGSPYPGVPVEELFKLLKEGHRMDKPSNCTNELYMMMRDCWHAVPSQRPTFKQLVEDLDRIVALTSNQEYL

Compound | inhibition at 10 µM [1] [%] | inhibition at 10 µM (FGFR1/FLT2) [%]
O=S(=O)(NCCNC/C=C/c1ccc(Br)cc1)c1cccc2cnccc12 [compound 5, H89] | 67 | –
CC(C)[C@H](CO)Nc1nc(Nc2ccc(C(=O)O)c(Cl)c2)c2ncn(C(C)C)c2n1 [compound 8, purvalanol B] | – | 58
CC(C)[C@H](CO)Nc1nc(Nc2cc(N)cc(Cl)c2)c2ncn(C(C)C)c2n1 [compound 6, aminopurvalanol A] | – | 68
